Results from patent US4172891A, “Cephalosporins” (Takeda Chemical Industries, Inc., priority 1976, dated 1979).
Like-named read-outs stand apart in the source and are kept apart here.

Assays:
E. coli T-7 = assay: Minimum Inhibitory Concentration, agar dilution, E. coli T-7; assay type: cell-based; settings: Escherichia coli
Excerpt: (§1) […]. | Minimum Inhibitory Concentrations (mcg/ml, agar dilution)

Cit. freundii GN 1706 = assay: Minimum Inhibitory Concentration, agar dilution, Cit. freundii GN 1706; assay type: cell-based; settings: Citrobacter freundii
Excerpt: as §1

K. pneumoniae GN 3835 = assay: Minimum Inhibitory Concentration, agar dilution, K. pneumoniae GN 3835; assay type: cell-based; settings: Klebsiella pneumoniae
Excerpt: as §1

P. rettgeri 8(TNO 336) = assay: Minimum Inhibitory Concentration, agar dilution, P. rettgeri 8(TNO 336); assay type: cell-based, Proteus rettgeri; settings: Providencia rettgeri
Excerpt: as §1

Cit. freundii GN 99 = assay: Minimum Inhibitory Concentration, agar dilution, Cit. freundii GN 99; assay type: cell-based; settings: Citrobacter freundii
Excerpt: as §1

Ent. cloacae IFO 12937 = assay: Minimum Inhibitory Concentration, agar dilution, Ent. cloacae IFO 12937; assay type: cell-based; settings: Enterobacter cloacae
P. vulgaris IFO 3988 = assay: Minimum Inhibitory Concentration, agar dilution, P. vulgaris IFO 3988; assay type: cell-based; settings: Proteus vulgaris
Excerpt: as §1

K. pneumoniae DT = assay: Minimum Inhibitory Concentration, agar dilution, K. pneumoniae DT; assay type: cell-based; settings: Klebsiella pneumoniae, read-out: Minimum Inhibitory Concentration
Excerpt: as §1

Escherichia coli O-111 = assay: Comparative protection test on infected mice; assay type: in vivo; settings: O111, sc, 168 h; male ICR/SLC mice infected intraperitoneally with Escherichia coli O-111; single subcutaneous dose immediately after challenge; 7 days observation
Excerpt: (§2) Following each example is a tabulation of the minimal inhibitory concentrations (MIC) of the present compound [I] obtained in accordance with the particular example against several representative gram-negative bacteria and the corresponding concentrations of cephaloridine [7-(2-thienylacetamido)-3-(1-pyridyl)methyl-3-cephem-4-carboxylic acid betaine] and cefazolin [sodium 7-(1H-tetrazol-1-yl)acetamido-3-(2-methyl-1,3,4-thiadiazol-5-yl)thiomethyl-3-cephem-4-carboxylate], both of which are typical cephalosporins commercially available and clinically accepted nowadays [The New England Journal of Medicine 294, 24 (1976) and Journal of Pharmaceutical Science 64, 1899 (1975)]. There are also shown the effective doses of the typical compounds of this invention on the mice infected with Escherichia coli in comparison with that of cephaloridine.
Comparative protection tests of the compounds of this
invention and cephaloridine on infected mice
*Test animals: male mice (ICR/SLC) 5 mice per group per single dose
Infection: intraperitoneally with Escherichia coli O-111
Administration: a single subcutaneous dose immediately after challenge
Observation period: 7 days

P. morganii IFO 3168 = assay: Minimum Inhibitory Concentration, agar dilution, P. morganii IFO 3168; assay type: cell-based, Proteus morganii; settings: Morganella morganii
Excerpt: as §1

E. coli O-111 = assay: Minimum Inhibitory Concentration, agar dilution, E. coli O-111; assay type: cell-based; settings: Escherichia coli
Excerpt: as §2
Minimum Inhibitory Concentrations (mcg/ml, agar dilution)

E. coli NIHJ = assay: Minimum Inhibitory Concentration, agar dilution, E. coli NIHJ; assay type: cell-based; settings: Escherichia coli, read-out: Minimum Inhibitory Concentration
Excerpt: as §1

P. rettgeri GN 4733 = assay: Minimum Inhibitory Concentration, agar dilution, P. rettgeri GN 4733; assay type: cell-based, Proteus rettgeri; settings: Providencia rettgeri
Excerpt: as §1

P. mirabilis GN 4359 = assay: Minimum Inhibitory Concentration, agar dilution, P. mirabilis GN 4359; assay type: cell-based; settings: Proteus mirabilis
Excerpt: as §1

[1] = T7, E. coli T-7, agar dilution, read-out: Minimum Inhibitory Concentration
[2] = GN1706, Cit. freundii GN 1706, agar dilution, read-out: Minimum Inhibitory Concentration
[3] = GN3835, K. pneumoniae GN 3835, agar dilution, read-out: Minimum Inhibitory Concentration
[4] = P. rettgeri 8(TNO 336), read-out: Minimum Inhibitory Concentration
[5] = GN99, Cit. freundii GN 99, agar dilution, read-out: Minimum Inhibitory Concentration
[6] = IFO3988, P. vulgaris IFO 3988, agar dilution, read-out: Minimum Inhibitory Concentration
[7] = K. pneumoniae DT, agar dilution
[8] = IFO3168, P. morganii IFO 3168, agar dilution, read-out: Minimum Inhibitory Concentration
[9] = O111, E. coli O-111, agar dilution, read-out: Minimum Inhibitory Concentration
[10] = GN4733, P. rettgeri GN 4733, agar dilution, read-out: Minimum Inhibitory Concentration
[11] = GN4359, P. mirabilis GN 4359, agar dilution, read-out: Minimum Inhibitory Concentration

Compound	MIC (E. coli T-7; [1]) [µg/mL]	MIC (Cit. freundii GN 1706; [2]) [µg/mL]	MIC (K. pneumoniae GN 3835; [3]) [µg/mL]	MIC (P. rettgeri 8(TNO 336); [4]) [µg/mL]	MIC (Cit. freundii GN 99; [5]) [µg/mL]	MIC (P. vulgaris IFO 3988; [6]) [µg/mL]	MIC (K. pneumoniae DT; [7]) [µg/mL]	ED50 (Escherichia coli O-111) [mg/kg]	MIC (P. morganii IFO 3168; [8]) [µg/mL]	MIC (E. coli O-111; [9]) [µg/mL]	MIC (E. coli NIHJ; E. coli NIHJ, agar dilution) [µg/mL]	MIC (P. rettgeri GN 4733; [10]) [µg/mL]	MIC (P. mirabilis GN 4359; [11]) [µg/mL]	also measured
N=c1scc(CC(=O)NC2C(=O)N3C(C(=O)O)=C(CSc4c[nH]nn4)CSC23)n1O (centres unmarked) [Example 7, sodium 7-[2-(2-imino-3-hydroxy-4-thiazolin-4-yl)acetamido]-3-(1H-1,2,3-triazol-4-yl)thiomethyl-3-cephem-4-carboxylate]	3.13	12.5	0.1	≤ 0.03	1.56	0.2	0.1	0.056	0.39	0.05	0.78	0.78	0.1	MIC (Ent. cloacae IFO 12937; IFO12937, Ent. cloacae IFO 12937, agar dilution, read-out: Minimum Inhibitory Concentration): > 100 µg/mL
Cn1c(CO)nnc1SCC1=C(C(=O)[O-])N2C(=O)C(NC(=O)Cc3csc(=N)n3O)[C@H]2SC1.[Na+] (some centres unmarked) [Example 8, sodium 7-[2-(2-imino-3-hydroxy-4-thiazolin-4-yl)acetamido]-3-(3-hydroxymethyl-4-methyl-1,2,4-triazol-5-yl)thiomethyl-3-cephem-4-carboxylate]	–	–	–	–	–	–	–	–	–	≤ 0.2	–	–	–	MIC (E. coli T-7; T7, read-out: Minimum Inhibitory Concentration): 1.56 µg/mL; MIC (Cit. freundii GN 1706; GN1706, read-out: Minimum Inhibitory Concentration): 3.13 µg/mL; MIC (K. pneumoniae GN 3835; GN3835, read-out: Minimum Inhibitory Concentration): ≤ 0.2 µg/mL; MIC (P. rettgeri 8(TNO 336); read-out: Minimum Inhibitory Concentration, P. rettgeri 8(TNO 336)): ≤ 0.2 µg/mL; MIC (Cit. freundii GN 99; GN99, read-out: Minimum Inhibitory Concentration): 0.78 µg/mL; MIC (Ent. cloacae IFO 12937; IFO12937, read-out: Minimum Inhibitory Concentration): 12.5 µg/mL; MIC (P. vulgaris IFO 3988; IFO3988, read-out: Minimum Inhibitory Concentration): 0.39 µg/mL; MIC (K. pneumoniae DT): ≤ 0.2 µg/mL; MIC (P. morganii IFO 3168; IFO3168, read-out: Minimum Inhibitory Concentration): ≤ 0.2 µg/mL; MIC (E. coli NIHJ): ≤ 0.2 µg/mL; MIC (P. rettgeri GN 4733; GN4733, read-out: Minimum Inhibitory Concentration): ≤ 0.2 µg/mL; MIC (P. mirabilis GN 4359; GN4359, read-out: Minimum Inhibitory Concentration): ≤ 0.2 µg/mL
Cn1nnnc1SCC1=C(C(=O)O)N2C(=O)C(NC(=O)Cc3csc(=N)n3O)[C@H]2SC1 (some centres unmarked) [Example 9, 7-[2-(2-imino-3-hydroxy-4-thiazolin-4-yl)acetamido]-3-(1-methyltetrazol-5-yl)thiomethyl-3-cephem-4-carboxylic acid]	–	–	–	–	–	–	–	0.04	–	–	–	–	–	–
Cc1nsc(SCC2=C(C(=O)O)N3C(=O)C(NC(=O)Cc4csc(=N)n4O)C3SC2)n1 (centres unmarked) [Example 15, sodium 7-[2-(2-imino-3-hydroxy-4-thiazolin-4-yl)acetamido]-3-(3-methyl-1,2,4-thiadiazol-5-yl) thiomethyl-3-cephem-4-carboxylate]	6.25	12.5	–	≤ 0.012	0.78	0.1	0.1	–	1.56	0.1	0.39	0.2	0.1	–
N=c1scc(CC(=O)NC2C(=O)N3C(C(=O)O)=C(CSc4nnc(C(F)(F)F)s4)CSC23)n1O (centres unmarked) [Example 16, sodium 7-[2-(2-imino-3-hydroxy-4-thiazolin-4-yl)acetamido]-3-(2-trifluorometyl-1,3,4-thiadiazol-5-yl)thiomethyl-3-cephem-4-carboxylate]	12.5	6.25	–	≤ 0.012	0.78	0.2	0.39	–	3.13	–	0.78	1.56	0.78	MIC (E. coli O-111; O111, read-out: Minimum Inhibitory Concentration): 0.39 µg/mL
N=c1scc(CC(=O)NC2C(=O)N3C(C(=O)O)=C(CSc4nnnn4CCO)CSC23)n1O (centres unmarked) [Example 17, sodium 7-[2-(2-imino-3-hydroxy-4-thiazolin-4-yl)acetamido]-3-[1-(2-hydroxyethyl)-1H-tetrazol-5-yl]thiomethyl-3-cephem-4-carboxylate]	1.56	12.5	0.1	≤ 0.012	0.39	0.2	0.05	–	0.39	0.05	0.1	0.05	0.1	–
